Test: Stability of the flavonoid in aqueous L-arginine/sodium ascorbate solution at 50° C., intact amount by HPLC
Format: physicochemical
Conditions: for amount of intact flavonoid remaining, of the initial amount in the solution: dissolved in water with L-arginine and sodium ascorbate, HPLC
Method: A composition containing rutin, L-arginine, and ascorbate was prepared in water by mixing 0.0071 mol rutin with an aqueous solution containing 0.020 mol L-arginine, heating the mixture to 80° C. until the rutin dissolved completely, and adding 0.0010 mol sodium ascorbate.
After cooling the above solution, the stability of rutin was tested by heating the mixture to 50° C. and quantifying the amount of intact rutin remaining by HPLC after 0 h, 5 h, and 24 h.

- amount of intact flavonoid remaining, of the initial amount in the solution (5 h at 50° C.): 100%
- amount of intact flavonoid remaining, of the initial amount in the solution (24 h at 50° C.): 97.2%
- flavonoid degraded (after 24 h at 50° C., with L-arginine and sodium ascorbate): 2.8%
SMILES: C[C@@H]1O[C@@H](OC[C@H]2O[C@@H](Oc3c(-c4ccc(O)c(O)c4)oc4cc(O)cc(O)c4c3=O)[C@H](O)[C@@H](O)[C@@H]2O)[C@H](O)[C@H](O)[C@H]1O [rutin]
